According to article PMC7026418, “The kinase polypharmacology landscape of clinical PARP inhibitors” (Scientific Reports, 2020):
Where two headings read alike, the source gives them in different places. One block for each molecule: values may come before it.

Key:
Test in all cases: biochemical
Design in all cases: DiscoveRx KINOMEscan active site-directed competition binding; percent of control kinase bound to immobilised ligand
CDK4-cyclinD1 = molecular target: T1, CDK4-cyclinD1 (Homo sapiens, UniProt P11802)
T1 construct: cyclinD1
T1 sequence (P11802 whole entry): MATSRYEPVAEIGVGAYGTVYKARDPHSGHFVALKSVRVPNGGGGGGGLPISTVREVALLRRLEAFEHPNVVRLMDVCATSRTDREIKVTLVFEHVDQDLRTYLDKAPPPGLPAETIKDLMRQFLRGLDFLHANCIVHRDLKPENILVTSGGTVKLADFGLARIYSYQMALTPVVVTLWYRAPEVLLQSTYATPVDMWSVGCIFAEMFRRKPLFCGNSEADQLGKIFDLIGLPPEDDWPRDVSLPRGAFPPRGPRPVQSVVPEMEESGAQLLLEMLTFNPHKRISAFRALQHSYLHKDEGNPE
T1 sequence (P24385 whole entry partner): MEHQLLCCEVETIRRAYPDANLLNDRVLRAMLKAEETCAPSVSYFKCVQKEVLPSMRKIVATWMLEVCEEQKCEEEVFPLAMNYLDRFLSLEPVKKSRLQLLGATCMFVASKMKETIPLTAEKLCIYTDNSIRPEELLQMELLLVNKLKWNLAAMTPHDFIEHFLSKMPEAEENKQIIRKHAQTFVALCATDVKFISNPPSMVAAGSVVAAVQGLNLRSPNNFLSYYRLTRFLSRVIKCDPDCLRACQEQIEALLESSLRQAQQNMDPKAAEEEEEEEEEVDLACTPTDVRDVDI

TBK1 = molecular target: T2, TBK1 (Homo sapiens, UniProt Q9UHD2)
T2 sequence (Q9UHD2 1-729): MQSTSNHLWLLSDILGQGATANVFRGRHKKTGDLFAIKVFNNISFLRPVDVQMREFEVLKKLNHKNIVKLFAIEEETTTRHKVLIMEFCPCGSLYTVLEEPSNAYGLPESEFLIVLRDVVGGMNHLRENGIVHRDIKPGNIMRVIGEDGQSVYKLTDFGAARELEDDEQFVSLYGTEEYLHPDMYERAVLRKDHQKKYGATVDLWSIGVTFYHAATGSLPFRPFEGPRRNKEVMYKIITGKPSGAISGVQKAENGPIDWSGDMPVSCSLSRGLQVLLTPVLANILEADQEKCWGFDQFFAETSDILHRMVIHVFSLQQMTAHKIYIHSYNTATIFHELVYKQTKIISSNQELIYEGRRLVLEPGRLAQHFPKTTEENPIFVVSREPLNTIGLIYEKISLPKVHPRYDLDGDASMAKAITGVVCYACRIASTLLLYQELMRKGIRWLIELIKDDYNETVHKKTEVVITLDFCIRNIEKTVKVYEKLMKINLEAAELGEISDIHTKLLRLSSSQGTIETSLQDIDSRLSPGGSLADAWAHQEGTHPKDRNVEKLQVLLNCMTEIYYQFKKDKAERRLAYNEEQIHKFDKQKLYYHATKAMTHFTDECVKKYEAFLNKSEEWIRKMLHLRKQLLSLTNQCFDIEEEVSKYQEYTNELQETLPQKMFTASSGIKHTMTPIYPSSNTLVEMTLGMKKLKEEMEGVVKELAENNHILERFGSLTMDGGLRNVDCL

CSNK2A2 = CSNK2A2 (Homo sapiens, UniProt P19784)
Chain of CSNK2A2 (P19784 whole entry): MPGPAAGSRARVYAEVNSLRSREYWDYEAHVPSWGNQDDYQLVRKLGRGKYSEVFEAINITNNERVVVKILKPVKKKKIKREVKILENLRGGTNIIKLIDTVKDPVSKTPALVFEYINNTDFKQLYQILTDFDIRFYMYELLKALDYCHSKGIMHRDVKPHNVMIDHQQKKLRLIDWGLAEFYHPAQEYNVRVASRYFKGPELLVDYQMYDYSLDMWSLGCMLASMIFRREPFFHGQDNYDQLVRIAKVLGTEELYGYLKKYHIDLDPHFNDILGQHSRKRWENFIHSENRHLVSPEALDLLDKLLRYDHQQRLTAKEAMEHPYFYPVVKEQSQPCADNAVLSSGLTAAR

CHEK2 = CHEK2 (Homo sapiens, UniProt O96017)
Chain of CHEK2 (O96017 whole entry): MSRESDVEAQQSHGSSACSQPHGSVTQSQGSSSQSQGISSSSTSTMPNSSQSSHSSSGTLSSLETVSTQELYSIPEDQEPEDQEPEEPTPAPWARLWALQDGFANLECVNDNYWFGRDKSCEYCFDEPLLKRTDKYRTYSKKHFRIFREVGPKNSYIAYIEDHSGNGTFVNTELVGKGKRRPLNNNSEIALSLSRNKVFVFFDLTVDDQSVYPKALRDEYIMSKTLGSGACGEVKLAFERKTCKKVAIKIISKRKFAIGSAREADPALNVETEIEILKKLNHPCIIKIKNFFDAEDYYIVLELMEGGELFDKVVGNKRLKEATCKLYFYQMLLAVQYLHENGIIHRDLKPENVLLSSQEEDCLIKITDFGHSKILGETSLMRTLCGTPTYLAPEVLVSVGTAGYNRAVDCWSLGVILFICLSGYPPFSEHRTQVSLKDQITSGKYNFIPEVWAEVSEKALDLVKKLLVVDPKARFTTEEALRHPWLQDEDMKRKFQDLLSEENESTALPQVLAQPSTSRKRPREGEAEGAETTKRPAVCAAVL

KIT(D816V) = KIT(D816V) (Homo sapiens, UniProt P10721, D816V)
Chain of KIT(D816V) (P10721 whole entry D816V): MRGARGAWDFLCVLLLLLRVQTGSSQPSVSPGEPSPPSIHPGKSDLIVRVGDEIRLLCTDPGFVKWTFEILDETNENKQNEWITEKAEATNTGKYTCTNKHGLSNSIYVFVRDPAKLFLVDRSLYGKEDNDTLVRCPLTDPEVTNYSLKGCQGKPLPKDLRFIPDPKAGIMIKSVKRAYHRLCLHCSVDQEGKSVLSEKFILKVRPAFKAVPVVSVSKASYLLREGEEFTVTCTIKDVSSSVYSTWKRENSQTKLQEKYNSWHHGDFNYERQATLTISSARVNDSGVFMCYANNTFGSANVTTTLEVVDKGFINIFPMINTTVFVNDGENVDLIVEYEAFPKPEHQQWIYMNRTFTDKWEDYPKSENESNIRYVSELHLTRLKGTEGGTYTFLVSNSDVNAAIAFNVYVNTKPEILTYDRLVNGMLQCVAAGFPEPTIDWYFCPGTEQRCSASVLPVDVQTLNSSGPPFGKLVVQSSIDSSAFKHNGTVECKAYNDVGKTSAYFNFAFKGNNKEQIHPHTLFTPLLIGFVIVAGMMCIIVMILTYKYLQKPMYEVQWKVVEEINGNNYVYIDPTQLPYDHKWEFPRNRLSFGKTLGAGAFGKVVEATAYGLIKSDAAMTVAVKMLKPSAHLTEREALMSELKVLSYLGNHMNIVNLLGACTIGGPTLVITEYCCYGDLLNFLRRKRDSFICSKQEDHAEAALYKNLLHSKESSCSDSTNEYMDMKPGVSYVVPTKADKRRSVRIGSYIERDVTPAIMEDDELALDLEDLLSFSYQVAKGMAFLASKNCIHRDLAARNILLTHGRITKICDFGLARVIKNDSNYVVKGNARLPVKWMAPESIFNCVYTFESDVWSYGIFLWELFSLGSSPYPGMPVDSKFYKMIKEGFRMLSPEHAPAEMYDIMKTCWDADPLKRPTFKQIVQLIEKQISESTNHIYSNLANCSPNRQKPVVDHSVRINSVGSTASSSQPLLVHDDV

ERBB3 = ERBB3 (Homo sapiens, UniProt P21860)
PRKG1 = molecular target: T3, PRKG1 (Homo sapiens, UniProt Q13976)
T3 sequence (Q13976 1-671): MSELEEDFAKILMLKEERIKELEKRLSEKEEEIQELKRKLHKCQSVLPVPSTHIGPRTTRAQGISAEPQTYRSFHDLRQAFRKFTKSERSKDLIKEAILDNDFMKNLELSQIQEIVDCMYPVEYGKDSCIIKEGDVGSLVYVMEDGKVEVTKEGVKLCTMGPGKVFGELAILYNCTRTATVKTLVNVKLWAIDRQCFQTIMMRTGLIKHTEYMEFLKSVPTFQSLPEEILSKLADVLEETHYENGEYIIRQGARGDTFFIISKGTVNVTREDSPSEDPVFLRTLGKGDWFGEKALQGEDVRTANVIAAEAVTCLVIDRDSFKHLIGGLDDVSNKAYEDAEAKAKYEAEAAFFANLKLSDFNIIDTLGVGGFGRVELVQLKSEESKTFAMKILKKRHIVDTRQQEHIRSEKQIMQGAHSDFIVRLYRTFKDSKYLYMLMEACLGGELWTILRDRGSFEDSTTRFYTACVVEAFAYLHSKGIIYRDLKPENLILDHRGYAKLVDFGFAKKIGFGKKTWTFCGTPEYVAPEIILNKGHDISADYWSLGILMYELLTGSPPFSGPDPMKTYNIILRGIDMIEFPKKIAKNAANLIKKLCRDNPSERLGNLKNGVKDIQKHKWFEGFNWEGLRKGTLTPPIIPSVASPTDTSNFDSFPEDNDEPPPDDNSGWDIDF

CSNK2A1 = CSNK2A1 (Homo sapiens, UniProt P68400)
Chain of CSNK2A1 (P68400 whole entry): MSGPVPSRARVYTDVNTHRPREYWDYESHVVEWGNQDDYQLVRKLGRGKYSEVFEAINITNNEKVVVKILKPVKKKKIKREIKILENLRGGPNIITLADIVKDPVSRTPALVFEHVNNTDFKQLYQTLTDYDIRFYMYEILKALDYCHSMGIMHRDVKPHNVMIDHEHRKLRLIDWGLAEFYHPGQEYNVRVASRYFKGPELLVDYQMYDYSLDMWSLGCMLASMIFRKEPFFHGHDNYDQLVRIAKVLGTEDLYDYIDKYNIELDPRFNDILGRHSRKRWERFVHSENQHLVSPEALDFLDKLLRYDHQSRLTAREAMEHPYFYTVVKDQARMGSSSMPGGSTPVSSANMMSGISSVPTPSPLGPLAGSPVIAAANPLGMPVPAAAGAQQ

[1] = molecular target: T4, RSK2(Kin.Dom.1-N-terminal) (Homo sapiens, UniProt P51812)
T4 construct: gene RPS6KA3; Kin.Dom.1-N-terminal
T4 sequence (P51812 whole entry): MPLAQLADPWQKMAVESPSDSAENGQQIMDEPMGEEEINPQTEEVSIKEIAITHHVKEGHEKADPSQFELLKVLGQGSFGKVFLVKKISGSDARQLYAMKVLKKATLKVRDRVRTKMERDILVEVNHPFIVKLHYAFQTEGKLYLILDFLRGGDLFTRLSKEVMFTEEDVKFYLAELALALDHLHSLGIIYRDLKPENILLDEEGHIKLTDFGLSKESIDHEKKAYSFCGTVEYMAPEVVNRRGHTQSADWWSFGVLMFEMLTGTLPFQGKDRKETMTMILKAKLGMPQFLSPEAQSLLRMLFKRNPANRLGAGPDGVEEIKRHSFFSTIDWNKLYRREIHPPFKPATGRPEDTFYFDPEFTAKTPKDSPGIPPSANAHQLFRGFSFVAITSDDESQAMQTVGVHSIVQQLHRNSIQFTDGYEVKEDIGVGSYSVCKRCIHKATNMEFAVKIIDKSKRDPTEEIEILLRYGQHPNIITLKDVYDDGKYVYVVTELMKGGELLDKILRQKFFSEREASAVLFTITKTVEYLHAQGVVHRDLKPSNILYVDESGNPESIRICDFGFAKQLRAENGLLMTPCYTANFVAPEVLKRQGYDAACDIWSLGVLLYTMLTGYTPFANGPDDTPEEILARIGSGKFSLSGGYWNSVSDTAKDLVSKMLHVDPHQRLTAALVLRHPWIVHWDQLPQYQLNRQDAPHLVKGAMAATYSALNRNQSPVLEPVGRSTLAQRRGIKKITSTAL

PIK3CA = PIK3CA (Homo sapiens, UniProt P42336)
Chain of PIK3CA (P42336 whole entry): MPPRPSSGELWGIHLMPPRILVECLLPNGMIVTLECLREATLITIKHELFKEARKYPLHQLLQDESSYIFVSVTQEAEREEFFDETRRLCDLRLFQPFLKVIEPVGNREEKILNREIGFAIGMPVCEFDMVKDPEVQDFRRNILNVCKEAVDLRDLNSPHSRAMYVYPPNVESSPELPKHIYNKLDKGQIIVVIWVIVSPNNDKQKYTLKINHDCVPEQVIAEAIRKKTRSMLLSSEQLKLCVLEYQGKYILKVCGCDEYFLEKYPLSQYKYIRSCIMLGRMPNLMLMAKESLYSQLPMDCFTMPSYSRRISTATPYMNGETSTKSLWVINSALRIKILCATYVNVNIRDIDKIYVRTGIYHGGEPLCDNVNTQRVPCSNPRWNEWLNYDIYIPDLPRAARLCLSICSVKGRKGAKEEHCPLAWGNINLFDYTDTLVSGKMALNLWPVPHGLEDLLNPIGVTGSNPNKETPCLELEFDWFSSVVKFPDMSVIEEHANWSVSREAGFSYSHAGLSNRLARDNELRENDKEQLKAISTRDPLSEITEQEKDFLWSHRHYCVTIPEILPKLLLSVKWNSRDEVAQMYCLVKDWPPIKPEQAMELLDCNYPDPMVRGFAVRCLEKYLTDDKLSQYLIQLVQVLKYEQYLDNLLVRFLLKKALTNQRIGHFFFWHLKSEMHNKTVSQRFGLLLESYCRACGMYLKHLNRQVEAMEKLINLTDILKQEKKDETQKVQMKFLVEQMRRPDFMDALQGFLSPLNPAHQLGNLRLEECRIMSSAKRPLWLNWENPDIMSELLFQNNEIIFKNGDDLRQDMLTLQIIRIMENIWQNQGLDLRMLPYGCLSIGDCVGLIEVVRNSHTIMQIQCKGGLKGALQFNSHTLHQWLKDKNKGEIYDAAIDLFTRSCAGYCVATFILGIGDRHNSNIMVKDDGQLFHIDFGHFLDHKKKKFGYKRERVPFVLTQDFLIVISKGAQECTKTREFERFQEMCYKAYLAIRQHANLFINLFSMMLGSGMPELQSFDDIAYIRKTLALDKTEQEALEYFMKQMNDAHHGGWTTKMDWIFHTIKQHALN

CSNK1A1L = molecular target: T5, CSNK1A1L (Homo sapiens, UniProt Q8N752)
T5 sequence (Q8N752 1-337): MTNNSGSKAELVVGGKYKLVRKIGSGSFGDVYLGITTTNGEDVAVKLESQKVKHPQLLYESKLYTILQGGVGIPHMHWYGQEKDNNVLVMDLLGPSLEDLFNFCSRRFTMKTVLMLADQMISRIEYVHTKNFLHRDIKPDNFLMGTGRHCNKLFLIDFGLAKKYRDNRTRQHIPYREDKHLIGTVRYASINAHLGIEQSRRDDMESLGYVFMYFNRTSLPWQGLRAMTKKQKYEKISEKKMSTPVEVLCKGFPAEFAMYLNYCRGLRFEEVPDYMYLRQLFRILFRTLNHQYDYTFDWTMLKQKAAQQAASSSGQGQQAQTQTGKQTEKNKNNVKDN

[2] = read-out: Niraparib (MK-4827) / %Ctrl @ 10000nM
[3] = read-out: Rucaparib / %Ctrl @ 10000nM, binding competition, % of control
[4] = read-out: Olaparib / %Ctrl @ 10000nM
[5] = read-out: Talazoparib (BMN 673) / %Ctrl @ 10000nM

Structure (SMILES): NC(=O)c1cccc2cn(-c3ccc([C@@H]4CCCNC4)cc3)nc12 [Niraparib]
percent of control binding at 10 µM (CDK4-cyclinD1; [2]): 82%
percent of control binding at 10 µM (TBK1; [2]): 75%
percent of control binding at 10 µM (CSNK2A2; [2]): 1.2%
percent of control binding at 10 µM (CHEK2; [2]): 89%
percent of control binding at 10 µM (KIT(D816V); [2]): 89%
percent of control binding at 10 µM (ERBB3; [2]): 100%
percent of control binding at 10 µM (PRKG1; [2]): 100%
percent of control binding at 10 µM (CSNK2A1; [2]): 6.8%
percent of control binding at 10 µM [1, 2]: 94%
percent of control binding at 10 µM (PIK3CA; [2]): 100%
percent of control binding at 10 µM (CSNK1A1L; [2]): 76%

percent of control binding at 10 µM (CDK4-cyclinD1; [3]): 25%
percent of control binding at 10 µM (TBK1; [3]): 87%
percent of control binding at 10 µM (CSNK2A2; [3]): 2%
percent of control binding at 10 µM (CHEK2; [3]): 76%
percent of control binding at 10 µM (KIT(D816V); [3]): 96%
percent of control binding at 10 µM (ERBB3; [3]): 74%
percent of control binding at 10 µM (PRKG1; [3]): 91%
percent of control binding at 10 µM (CSNK2A1; [3]): 2.2%
percent of control binding at 10 µM [1, 3]: 52%
percent of control binding at 10 µM (PIK3CA; [3]): 91%
percent of control binding at 10 µM (CSNK1A1L; [3]): 86%
Structure (SMILES): CNCc1ccc(-c2[nH]c3cc(F)cc4c3c2CCNC4=O)cc1 [Rucaparib]

percent of control binding at 10 µM (CDK4-cyclinD1; [4]): 80%
percent of control binding at 10 µM (TBK1; [4]): 91%
percent of control binding at 10 µM (CSNK2A2; [4]): 83%
percent of control binding at 10 µM (CHEK2; [4]): 94%
percent of control binding at 10 µM (KIT(D816V); [4]): 100%
percent of control binding at 10 µM (ERBB3; [4]): 83%
percent of control binding at 10 µM (PRKG1; [4]): 100%
percent of control binding at 10 µM (CSNK2A1; [4]): 88%
percent of control binding at 10 µM [1, 4]: 94%
percent of control binding at 10 µM (PIK3CA; [4]): 87%
percent of control binding at 10 µM (CSNK1A1L; [4]): 99%
Structure (SMILES): O=C(c1cc(Cc2n[nH]c(=O)c3ccccc23)ccc1F)N1CCN(C(=O)C2CC2)CC1 [Olaparib]

percent of control binding at 10 µM (CDK4-cyclinD1; [5]): 70%
percent of control binding at 10 µM (TBK1; [5]): 44%
percent of control binding at 10 µM (CSNK2A2; [5]): 77%
percent of control binding at 10 µM (CHEK2; [5]): 93%
percent of control binding at 10 µM (KIT(D816V); [5]): 94%
percent of control binding at 10 µM (ERBB3; [5]): 100%
percent of control binding at 10 µM (PRKG1; [5]): 57%
percent of control binding at 10 µM (CSNK2A1; [5]): 98%
percent of control binding at 10 µM [1, 5]: 88%
percent of control binding at 10 µM (PIK3CA; [5]): 59%
percent of control binding at 10 µM (CSNK1A1L; [5]): 100%
Structure (SMILES): Cn1ncnc1[C@H]1c2n[nH]c(=O)c3cc(F)cc(c23)N[C@@H]1c1ccc(F)cc1 [Talazoparib]
